Assay results as given in US11639412B2, “Acute care cover for severe injuries” (priority 2016, dated 2023).

Test system: Staphylococcus aureus
Experiment: Zone of inhibition assay
Format: cell-based
Conditions: 37° C. for 72 hours
Procedure: Zone-of-inhibition and Drug Delivery Assay—Antimicrobial activity of ciprofloxacin- and tetracycline-loaded polyHIPEs was assessed through a zone of inhibition assay. […] The polyHIPE discs were incubated in the drug solutions at room temperature overnight. Prior to being frozen and lyophilized, the discs were briefly rinsed with methanol. A plate of Staphylococcus aureus was streaked using cells from frozen stocks; single colonies, selected from the plate, were then used to inoculate 10 mL of liquid LB media, which were cultured overnight at 37° C. The starter cultures were diluted with fresh LB to an OD600 of approximately 1.1 before being further diluted in 1:5 ratio of culture to fresh, liquid LB media. To inoculate LB agar plates, 250 μL of the diluted culture was spread evenly across the surface of the plates, which were then incubated for 30 minutes at 37° C. The LB plates were then removed from the incubator and divided into 4 quadrants with the drug-loaded or control polyHIPE discs placed in the center of each quadrant. The plates were then returned to the incubator and cultured for approximately 24 hours. Following the 24-hour period of incubation, the plates were removed, photographed next to a standard ruler and the polyHIPEs transferred to a freshly inoculated plate which was incubated for another 24 hours. […]

O=C(O)c1cn(C2CC2)c2cc(N3CCNCC3)c(F)cc2c1=O [ciprofloxacin]
antibiotic activity within polyHIPEs after incubation: not diminished
